As a reminder, the inhibition is the percentage by which the read-out fell short of the control. One may read the IC50 as the concentration needed to halve the response being measured.

Counter-ions that a name gives are not always drawn.

Consider 4 molecules from patent US6562828B1, “Amidine compounds” (Japan Tobacco Inc., priority 1998, dated 2003).

Assay [1] concerns normal plasma. Kind of assay: Determination of prothrombin time (PT), rat plasma. The class given is biochemical. The method, then:
(§1) Determination of prothrombin time (PT)
(§2) Blood was taken from mouse, rat, crab-eating monkey and healthy human volunteers, and citric acid was added. The blood was centrifuged at 4° C. and 2000 G for 15 min to obtain normal plasma of various animals.
(§3) Purified water (5 μl) containing various concentrations of test compound was added to plasma (45 μl) and the resultant mixtures were used as samples. […] (Baxter) was prepared and heated at […] for 5 min, and a sample (50 μl) was admixed with the thrombin reagent (100 μl). The time (PT) until precipitation of fibrin was measured. The drug concentration that doubled the PT hours of the drug untreated group was calculated and taken as CT2.

Assay [2] deals with T1, Human FXa (Homo sapiens, UniProt P00742).
T1 construct: Human FXa [Enzyme research Laboratories (USA)] enzyme; purchased Enzyme Research Laboratories (USA)
T1 sequence (P00742 235-488 limits assumed): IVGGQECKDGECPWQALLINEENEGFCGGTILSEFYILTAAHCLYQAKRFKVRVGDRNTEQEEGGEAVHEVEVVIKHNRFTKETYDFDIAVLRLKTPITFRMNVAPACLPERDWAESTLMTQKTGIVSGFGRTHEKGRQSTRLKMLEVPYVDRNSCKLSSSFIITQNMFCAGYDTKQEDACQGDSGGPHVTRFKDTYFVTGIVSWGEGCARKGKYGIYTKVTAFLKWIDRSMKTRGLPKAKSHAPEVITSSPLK
T1 sequence (P00742 41-179 limits assumed): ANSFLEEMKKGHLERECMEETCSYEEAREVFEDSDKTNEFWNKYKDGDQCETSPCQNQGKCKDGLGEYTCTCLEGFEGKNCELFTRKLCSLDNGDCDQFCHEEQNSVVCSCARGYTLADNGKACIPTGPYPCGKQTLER
The experiment in a line: Intravenous administration test in mouse, human FXa inhibitory activity in serum. To be noted: ICR mice, i.v., mean ± S.D., n = 3. The class given is in vivo. The method, then:
Intravenous Administration Tests in Mouse
A test compound dissolved in physiological saline was intravenously administered to ICR mice (body weight 20-30 g, 4-6 weeks old) and the activity of the test compound was evaluated based on the human FXa inhibitory activity in serum as an indicator.
At 10, 30, 60, 120 min from the intravenous administration, blood was taken from the eye ground using a hematocrit tube. The blood was centrifuged at 9000 G for 5 min and the obtained serum was used for the determination.
(§4) Human FXa inhibitory activity was measured as follows. Human FXa [Enzyme research Laboratories (USA)] enzyme (40 μl, 0.5 U/ml) and a 4-fold diluted plasma sample (40 μl) were incubated in 0.1M Tris-0.2M NaCl buffer (pH 8.4) (40 μl) at 37° C. for 10 min. A synthetic substrate S-2222 (Daiichi Pure Chemical (Tokyo, Japan), 40 μl) adjusted to 0.8 mM was added and the mixture was incubated at 37° C. for 5 min. The reaction was stopped by addition of 60% acetic acid (40 μl) and absorbance at 405 nm was measured by Model 3550 (BIO-RAD). For the control, serum or plasma obtained prior to blood sampling was used for measurement. Human FXa inhibitory activity was calculated as inhibition percentage (%) against control.

In assay [3] the test system is normal plasma. The experiment in a line: Determination of prothrombin time (PT), crab-eating monkey plasma. The class given is biochemical. As for the experimental part: as §1, §2, §3
In assay [4] the target is T1, Human FXa. Kind of assay: Oral administration test in mouse, human FXa inhibitory activity in serum. Type of assay: in vivo. To be noted: ICR mice, mean ± S.D., n = 3. As for the experimental part: as §4
Oral Administration Tests in Mouse
A test compound dissolved in distilled water was orally administered to ICR mice (body weight 20-30 g, 4-6 weeks old) and the activity of the test compound was evaluated based on the human FXa inhibitory activity in serum as an indicator.
At 30, 60, 120, 180 min from the oral administration, blood was taken from the eye ground using a hematocrit tube. The blood was centrifuged at 9000 G for 5 min and the obtained serum was used for the determination. Human FXa inhibitory activity was determined in the same manner as in the test by intravenous administration.

In assay [5] the test system is normal plasma. Kind of assay: Determination of prothrombin time (PT), human plasma. The class given is biochemical. The method, then: as §1, §2, §3
The subject of assay [6] is decrease of platelets and formation of FDP by thromboplastin. The experiment in a line: Blood coagulation model in rat (thromboplastin). The class given is in vivo. The note with it: i.v. 10 min before thromboplastin, mean ± S.D, n = 3; for PLT value: counted 10 min later; for FDP value: measured 30 min later. As for the experimental part:
Blood Coagulation Model in Rat
Intravenous administration of thromboplastin (Sigma) to rat promotes coagulation system, which in turn decreases platelets and increases fibrin degradation product (FDP). Thus, the test compound was intravenously administered 10 min before thromboplastin administration and the inhibitory effects of the test compound on the decrease of platelets and the formation of FDP by thromboplastin were studied. The thromboplastin administered had such concentration as to form clots within 20 seconds from the addition of one plasma dose to two thromboplastin doses and was administered in 1 ml/kg dose. Platelets were counted (PLT value) 10 min later on a blood cell counter sysmex F-800 [Dade International Inc. (USA)], and FDP was measured 30 min later using FDP latex reagent for serum [Teikoku Hormone Mfg. Co., Ltd. (Tokyo, Japan)]. In every Example, the PLT value of the thromboplastin untreated group was (106±13)×10^4 and the FDP value of this group was 0±0 μg/ml.

For assay [7], the system named is normal plasma. The experiment in a line: Determination of prothrombin time (PT), mouse plasma. The class given is biochemical. As for the experimental part:
as §1, §2, §3

The target in another assay is T2, Human FIIa (Homo sapiens, UniProt P00734).
T2 construct: purchased Sigma
The experiment in a line: Determination of anti-factor IIa (FIIa) activity, synthetic substrate S-2238. Type of assay: biochemical. To be noted: S-2238, 37° C., pH 8.4, read-out: Experimental Example 2: anti-FIIa activity, IC50.

Assay [8] concerns the target T1, Human FXa. Kind of assay: Intravenous administration test in monkey, human FXa inhibitory activity in plasma. Type of assay: in vivo. To be noted: crab-eating monkey, i.v., mean ± S.D., n = 3. As for the experimental part: as §4
Intravenous Administration Tests in Monkey
A test compound dissolved in physiological saline was intravenously administered to monkey (crab-eating monkey, body weight 3.5-4.5 kg) and the activity of the test compound was evaluated based on the human FXa inhibitory activity in plasma as an indicator.
At 10, 30, 60, 120, 180 min from the intravenous administration, blood was taken from the saphenous vein with the passage of time and the blood was centrifuged at 2000 G for 10 min. The obtained citric acid plasma was used for the determination. Human FXa inhibitory activity was determined in the same manner as in the test using mouse.

Assay [9] concerns the target T1, Human FXa. The experiment in a line: Oral administration test in monkey, human FXa inhibitory activity in plasma. To be noted: crab-eating monkey, mean ± S.D., n = 3. The class given is in vivo. As for the experimental part:
as §4
Oral Administration Tests in Monkey
A test compound dissolved in distilled water was orally administered to monkey (carb-eating monkey, body weight 3.5-4.5 kg) and the activity of the test compound was evaluated based on the human FXa inhibitory activity in plasma as an indicator.
At 30, 60, 120, 240, 480 min from the oral administration, blood was taken from the saphenous vein with the passage of time and the blood was centrifuged at 2000 G for 10 min. The obtained citric acid plasma was used for the determination. Human FXa inhibitory activity was determined in the same manner as in the test by intravenous administration.

Turning to `CC(=N)N1CC[C@H](Oc2ccc([C@H](Cc3ccc4ccc(C(=N)N)cc4c3)C(=O)O)cc2)C1` [Comparative Example 1, (2S)-2-[4-[(3S)-1-acetimidoylpyrrolidin-3-yloxy]phenyl]-3-[7-amidinonaphthalen-2-yl]propionic acid hydrochloride pentahydrate, reference compound], the “CT2 (drug concentration that doubled the PT)” value (“CT2” for short) was 10 µM in the assay with normal plasma [1], 4 µM in the assay on normal plasma [3], 2 µM with normal plasma [5] and 10 µM in the assay with normal plasma [7]. Moreover, the inhibition at 1 mg/kg was determined as 43 ± 3% on Human FXa [2] (10 minutes), 14 ± 2% against Human FXa [2] (30 minutes), 0% against Human FXa [2] (60 minutes) and 1 ± 2% on Human FXa [2] (120 minutes). Further, the inhibition at 10 mg/kg against Human FXa [4] (30 minutes) was 11 ± 4%; on Human FXa [4] (60 minutes) it was 6 ± 4%; on Human FXa [4] (120 minutes), 6 ± 4%; against Human FXa [4] (180 minutes) it was 6 ± 4%. Besides, the PLT value in assay [6] (dose 0.03 mg/kg) is 41 ± 9 ×10^4 blood platelet/μl; in assay [6] (dose 0.1 mg/kg) it was 67 ± 16 ×10^4 blood platelet/μl; in [6] (dose 0.3 mg/kg), 100 ± 5 ×10^4 blood platelet/μl. The FDP value was 9 ± 2 µg/mL in assay [6] (dose 0.03 mg/kg), 3 ± 2 µg/mL in assay [6] (dose 0.1 mg/kg) and 1 ± 1 µg/mL in assay [6] (dose 0.3 mg/kg).

With `N=C(N)N1CCc2ccc(OCC3(C(=O)O)CCN(c4ccncc4)CC3)cc2C1` [Example 7, 4-(2-Amidino-1,2,3,4-tetrahydroisoquinolin-7-yloxymethyl)-1-(pyridin-4-yl)piperidine-4-carboxylic Acid Dihydrochloride], the “CT2” value in the assay on normal plasma [1] was 30 µM; in the assay on normal plasma [5] it was 0.5 µM; in the assay with normal plasma [7], 10 µM. Further, the inhibition at 1 mg/kg at Human FXa [2] (10 minutes) is 64 ± 2%; against Human FXa [2] (30 minutes) it was 54 ± 1%; on Human FXa [2] (60 minutes), 46 ± 4%; against Human FXa [2] (120 minutes) it was 30 ± 5%. For the same molecule, the inhibition at 3 mg/kg against Human FXa [2] (10 minutes) came out at 82 ± 1%; at Human FXa [2] (30 minutes) it was 78 ± 1%; at Human FXa [2] (60 minutes), 72 ± 2%; at Human FXa [2] (120 minutes), 59 ± 5%. On Human FIIa, the IC50 is more than 10 µM. The inhibition at 10 mg/kg at Human FXa [4] (30 minutes) amounted to 48 ± 7%; on Human FXa [4] (60 minutes), 40 ± 9%; on Human FXa [4] (120 minutes), 26 ± 7%; on Human FXa [4] (180 minutes) it was 18 ± 9%. Besides, the PLT value is reported as 66 ± 21 ×10^4 blood platelet/μl in assay [6] (dose 0.1 mg/kg), 72 ± 10 ×10^4 blood platelet/μl in [6] (dose 0.3 mg/kg) and 96 ± 18 ×10^4 blood platelet/μl in [6] (dose 1 mg/kg). For the same molecule, the FDP value in assay [6] (dose 0.1 mg/kg) turned out to be 7 ± 3 µg/mL; in [6] (dose 0.3 mg/kg), 4 ± 1 µg/mL; in assay [6] (dose 1 mg/kg), 0 ± 0 µg/mL.

Regarding `N=C(N)N1CCc2ccc(OCC3(C(=O)O)CCN(c4ccncc4)CC3)cc2C1` [Example 9, 4-(2-Amidino-1,2,3,4-tetrahydroisoquinolin-7-yloxymethyl)-1-(pyridin-4-yl)piperidine-4-carboxylic Acid Hydrochloride], the inhibition at 1 mg/kg amounted to 82 ± 1% against Human FXa [8] (10 minutes); 72 ± 2% against Human FXa [8] (30 minutes); 58 ± 4% on Human FXa [8] (60 minutes); 41 ± 3% against Human FXa [8] (120 minutes); 29 ± 2% on Human FXa [8] (180 minutes). The inhibition at 10 mg/kg at Human FXa [9] (30 minutes) came to 28 ± 33%; against Human FXa [9] (60 minutes), 37 ± 27%; against Human FXa [9] (120 minutes) it was 46 ± 20%; against Human FXa [9] (240 minutes) it was 49 ± 9%; at Human FXa [9] (480 minutes), 23 ± 11%.

In the case of `N=C(N)N1CCc2ccc(OCC3(C(=O)O)CCN(c4ccncc4)CC3)cc2C1` [Example 67, 4-(2-Amidino-1,2,3,4-tetrahydroisoquinolin-7-yloxymethyl)-1-(pyridin-4-yl)piperidine-4-carboxylic Acid Methanesulfonate], the “CT2” value in the assay with normal plasma [3] stood at 5 µM.
